Experimental data published in patent US8354394B2, “Diuretics” (Merck Sharp & Dohme Corp., priority 2009, dated 2013).

Tested on: beagle dogs
Experiment: canine telemetry protocol for blood pressure reduction efficacy
Format: in vivo
Details: male beagle dogs, 3 mg/kg oral gavage
Procedure: Compounds of the invention were evaluated for blood pressure reduction efficacy using the following canine telemetry protocol.
Male beagle dogs (approximately 1-3 years old) with a body weight of between 10 and 16 kg were surgically implanted with DSI radiotelemetry devices (model: TL11M2-D70-PCT). Briefly, under an inhalant anesthesia, isoflurane/oxygen mixture (1-3.5%/to effect), the body of the telemetry device was positioned and secured intra-abdominally. Subsequently, the arterial catheter of the telemetry device was passed subcutaneously to the inguinal area and introduced into the femoral artery and advanced to the level of the descending aorta. The catheter was secured with 2-0 silk ligatures. The muscle and underlying fascia was closed over the catheter using absorbable suture and the skin was closed using non-absorbable suture. The animals were allowed a minimum recovery period of 2 weeks between surgery and the evaluation of test compounds.
Compound evaluation consisted of a 3 day paradigm at a 3 mg/kg dose. On the first day, no compounds were administered during a 24 hour period of baseline data collection. Blood pressure and heart rate data were collected continuously for one minute periods at 10 minute intervals. On the days of compound administration half the animals received test article with the other half receiving the vehicle used for compound formulation. All test materials were administered by oral gavage in a volume of 1 mL/kg. Data are expressed either as raw values (mm Hg or beats per minute) or as the change from baseline (average value for about 12 hours in low activity period prior to dosing). Change is SBP (systolic blood pressure) and PP (pulse pressure) over time is shown below: […]

SMILES	ΔPP (pulse pressure, change from baseline) 1-6 h [mm Hg]	ΔSBP (systolic blood pressure, change from baseline) 1-6 h [mm Hg]	ΔPP (pulse pressure, change from baseline) 6-12 h [mm Hg]	ΔSBP (systolic blood pressure, change from baseline) 6-12 h [mm Hg]	ΔPP (pulse pressure, change from baseline) 12-18 h [mm Hg]	ΔSBP (systolic blood pressure, change from baseline) 12-18 h [mm Hg]
Cc1ncc2c(c1OC(=O)[C@H]1CC[C@@H](O/N=[N+](\[O-])N(C)C(C)(C)C)CC1)CO[C@H]2c1ccc(Cl)cc1 [Example 5, (3S)-3-(4-Chlorophenyl)-6-methyl-1,3-dihydrofuro[3,4-c]pyridin-7-yl cis-4-({[(1Z)-2-tert-butyl-2-methyl-1-oxidohydrazono]amino}oxy)cyclohexanecarboxylate]	−10	−11	−3	−2	1	2
Cc1ncc2c(c1OC(=O)[C@H]1CC[C@H](O/N=[N+](\[O-])N(C)C(C)(C)C)CC1)CO[C@H]2c1ccc(Cl)cc1 [Example 6, (3S)-3-(4-Chlorophenyl)-6-methyl-1,3-dihydrofuro[3,4-c]pyridin-7-yl trans-4-({[(1Z)-2-tert-butyl-2-methyl-1-oxidohydrazono]amino}oxy)cyclohexanecarboxylate]	−16	−16	−7	−6	−3	−1
Cc1ncc2c(c1OC(=O)CCCCO/N=[N+](\[O-])N(C)C(C)(C)C)CO[C@H]2c1ccc(Cl)cc1 [Example 8, (3S)-3-(4-Chlorophenyl)-6-methyl-1,3-dihydrofuro[3,4-c]pyridin-7-yl 5-({[(1Z)-2-tert-butyl-2-methyl-1-oxido-1λ^5-diazan-1-ylidene]amino}oxy)pentanoate]	−12	−15	−8	−12	−4	−2
Cc1ncc2c(c1OC(=O)CCC(C)CO/N=[N+](\[O-])N(C)C(C)(C)C)CO[C@H]2c1ccc(Cl)cc1 (stereo partly drawn) [Example 13, (3S)-3-(4-Chlorophenyl)-6-methyl-1,3-dihydrofuro[3,4-c]pyridin-7-yl 5-({[(1Z)-2-tert-butyl-2-methyl-1-oxido-1λ^5-diazan-1-ylidene]amino}oxy)-4-methylpentanoate]	−22	−30	−11	−15	−6	−4
Cc1ncc2c(c1OC(=O)CCCC(C)O/N=[N+](\[O-])N(C)C(C)(C)C)CO[C@H]2c1ccc(Cl)cc1 (stereo partly drawn) [Example 14, (3S)-3-(4-Chlorophenyl)-6-methyl-1,3-dihydrofuro[3,4-c]pyridin-7-yl 5-({[(1Z)-2-tert-butyl-2-methyl-1-oxido-1λ^5-diazan-1-ylidene]amino}oxy)hexanoate]	−18	−21	−9	−8	−3	3
Cc1ncc2c(c1OC(=O)O[C@@H](C)CCCCO/N=[N+](\[O-])N(C)C(C)(C)C)CO[C@H]2c1ccc(Cl)cc1 [Example 25, (2S)-6-({[(1Z)-2-tert-butyl-2-methyl-1-oxido-1λ^5-diazan-1-ylidene]amino}oxy)hexan-2-yl (3 S) 3-(4-chlorophenyl)-6-methyl-1,3-dihydrofuro[3,4-c]pyridin-7-yl carbonate]	−12	−14	−7	−7	−4	0
